For two compounds, inhibition, Activity and IC50 results are on record in ChEMBL document CHEMBL1212698, “A forward chemical genetic screen reveals an inhibitor of the Mre11-Rad50-Nbs1 complex” (Nat Chem Biol, 2008).

By IC50 is commonly meant the concentration needed to halve the response being measured.

The species entered for data set [1] is Xenopus laevis. In words: (§1) Inhibition of DNA double strand break-induced ataxia telangiectasia mutated activation in Xenopus laevis extract assessed as inhibition of H2AX phosphorylation.
Data set [2] relates to U2OS. Put plainly: Inhibition of 10 Gy irradiation-induced G2/M check point in human U2OS cells using G2 synchronized cells at 25 uM after 24 hrs by FACS analysis. The data set is classed as functional, cell-based. Background: A flow cytometer gives signals particle by particle.
Data set [3] can be described thus: Cell cycle arrest in human TOSA4 cells assessed as accumulation at G2 phase at 100 uM after 24 hrs by FACS analysis. It counts as functional, cell-based.
For data set [4], the species on record is Xenopus laevis. In words: Stimulation of Mre11/Rad50/Nbs1-dependent DNA tethering in Xenopus laevis extract at 100 uM.
The test system of data set [5] is TOSA4. Put plainly: Inhibition of gene conversion in human TOSA4 cells transfected with I-Sec1 expressing plasmid assessed as decrease in GFP-positive cells at 25 uM after 24 hrs by gene conversion assay. The data set is classed as functional, cell-based.
The nature of data set [6]: as §1.
For data set [7], the species on record is Xenopus laevis. Put plainly: Inhibition of ataxia telangiectasia mutated binding to streptavidin-bound biotinylated DNA in Xenopus laevis extract up to 1 mM.
The species entered for data set [8] is Xenopus laevis. Put plainly: Inhibition of ataxia telangiectasia mutated-dependent Nbs1 phosphorylation in Xenopus laevis extract assessed as electrophoretic mobility by Western blot analysis. A general note: In western blotting, separated proteins are transferred to a membrane and probed.
The target in data set [9] is T1, Double-strand break repair protein MRE11 (Homo sapiens) (UniProt P49959).
T1 sequence (whole entry): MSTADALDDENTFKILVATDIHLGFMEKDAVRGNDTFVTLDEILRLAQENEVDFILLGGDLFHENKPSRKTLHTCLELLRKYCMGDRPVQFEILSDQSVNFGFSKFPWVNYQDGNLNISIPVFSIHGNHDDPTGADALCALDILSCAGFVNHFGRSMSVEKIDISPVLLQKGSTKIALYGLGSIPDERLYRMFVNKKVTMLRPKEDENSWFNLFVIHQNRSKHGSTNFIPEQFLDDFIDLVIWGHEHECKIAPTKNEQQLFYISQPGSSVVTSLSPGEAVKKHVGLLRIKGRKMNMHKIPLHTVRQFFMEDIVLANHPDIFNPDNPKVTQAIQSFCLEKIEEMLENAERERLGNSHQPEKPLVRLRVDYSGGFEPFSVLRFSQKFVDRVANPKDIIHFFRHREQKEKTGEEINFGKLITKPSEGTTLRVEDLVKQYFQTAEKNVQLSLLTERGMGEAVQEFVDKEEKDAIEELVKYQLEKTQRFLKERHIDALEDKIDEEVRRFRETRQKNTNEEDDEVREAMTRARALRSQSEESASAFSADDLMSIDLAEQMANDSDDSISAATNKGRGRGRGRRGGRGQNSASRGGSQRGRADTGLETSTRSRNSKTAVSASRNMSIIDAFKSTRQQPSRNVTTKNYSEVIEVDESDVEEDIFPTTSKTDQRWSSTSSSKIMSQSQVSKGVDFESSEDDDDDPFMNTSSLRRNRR
Put plainly: Inhibition of human Mre11 ExoIII nuclease activity at 100 uM.

The species entered for data set [10] is Xenopus laevis. Put plainly: Induction of FLAG-tagged Mre11/Rad50/Nbs1 dissociation in Xenopus laevis extract at 100 uM.
For data set [11], the system named is U2OS. Put plainly: Cell cycle arrest in human U2OS cells assessed as accumulation at G2 phase at 100 uM after 24 hrs by FACS analysis. It counts as functional, cell-based.
Data set [12] deals with T1, Double-strand break repair protein MRE11 (Homo sapiens). Put plainly: Inhibition of human Mre11 nuclease activity at 100 uM.
For data set [13], the species on record is Xenopus laevis. Put plainly: Inhibition of Mer11 binding to streptavidin-bound biotinylated DNA in Xenopus laevis extract up to 1 mM.
Data set [14] has as its system Nucleic Acid. In words: Inhibition of DNA tethering in Xenopus laevis extract at 10 uM. The data set is classed as nucleic-acid assay.
Data set [15] is filed under the species Xenopus laevis. In words: Inhibition of DNA double strand break-induced Mre11/Rad50/Nbs1-dependent ATM autophosphorylation at Ser1981.
The species named for data set [16] is Xenopus laevis. In words: Inhibition of ataxia telangiectasia mutated-dependent Chk2 phosphorylation in Xenopus laevis extract assessed as electrophoretic mobility by Western blot analysis.
The test system of data set [17] is HEK293. In words: Cytotoxicity against human HEK293 cells at 25 uM after 24 hrs. It counts as cell-based. The conditions noted are these: hek293, 24 h.
For data set [18], the species on record is Homo sapiens. In words: Inhibition of human Mre11/Rad50/Nbs1-dependent DNA tethering assessed as Rad50-associated adenylate kinase activity at 0.05 to 0.8 mM.
Data set [19] has as its system HEK293. In words: Cytotoxicity against human HEK293 cells at 50 uM after 24 hrs. The data set is classed as cell-based. The conditions noted are these: hek293, 24 h.
For data set [20], the species on record is Xenopus laevis. In words: Inhibition of monomeric ataxia telangiectasia mutated catalytic activity at 50 uM.
Data set [21] in a line: Inhibition of dimeric recombinant ataxia telangiectasia mutated activation in Xenopus laevis extract in presence of DNA, Mre11/Rad50/Nbs1.
A short description of data set [22]: Cell cycle arrest in human TOSA4 cells assessed as accumulation at G2 phase at 50 uM after 24 hrs by FACS analysis. It counts as functional, cell-based.

Structures are written as SMILES. Calls of active or inactive are those of the source. The rule behind the calls is not given here.

Regarding `O=c1cc(-c2ccccc2)[nH]c(=S)[nH]1`, the inhibition entry in data set [1] was “inactive”.

`N=C1NC(=O)/C(=C/c2ccc(O)cc2)S1` [MIRIN]: the inhibition entry in data set [2], in [5], in data set [8], in data set [12], in [15] and in data set [16] was “Active” throughout. In addition, the result in [3], in data set [4], in data set [11] and in data set [22] was Active. The half-inhibitory concentration (IC50) stood at 66 µM in data set [6] and 12 µM in data set [21]. In addition, the inhibition entry in [7], in [9], in data set [13], in data set [14] and in data set [20] was “inactive” throughout. Moreover, the result in data set [10] and in data set [18] was inactive. Besides, the Activity entry in [17] and in data set [19] was “Non-toxic” throughout.
